Patent EP4497440A1, “USE OF 7-TRIFLUOROMETHYL-7ALPHA,25-DIHYDROXYCHOLESTEROL IN THE TREATMENT AND MODULATION OF AUTOIMMUNE AND INFLAMMATORY DISEASES OF THE NERVOUS SYSTEM AND NEURODEGENERATIVE DISEASES” (Gdanski Uniwersytet Medyczny, priority 2023, dated 2025)
Entries after “also recorded” stand apart in the source; their conditions may differ.

Legend:
[1] = tested on: mice in the cuprizone model; test: Cuprizone model: mass spectrometer imaging and lipid quantification in brain sections; type: in vivo
Excerpt: Measurement of lipoprotein density in myelin sheaths, taken on sections of brains of the mice in the cuprizone model. The mice in the cuprizone model subject were divided into 6 groups: • #1. control group: regular cuprizone-free chow for 9 weeks. The mice were euthanised after 9 weeks and tissue samples were taken for analysis. In these mice no removal of myelin sheaths occurred. • #2. control group with cuprizone: chow containing cuprizone for 9 weeks. The mice were euthanised after 9 weeks and tissue samples were taken for analysis. In the mice fed with chow containing cuprizone myelin sheaths were removed. • #3. vehicle control group - the mice were fed with chow containing cuprizone for 9 weeks, and then with regular chow without cuprizone for 2 weeks. Over the 2 weeks on regular show the mice in the vehicle control group were first injected with vehicle #1: DMSO, intraperitoneally, 150 µl once a day, and then with vehicle #2: canola oil, subcutaneously, 150 µl once a day. • #4. barbadin control group - the mice were fed with chow containing cuprizone for 9 weeks and then with regular chow without cuprizone for 2 weeks. […]
Mouse brain sections were imaged using a mass spectrometer and then the lipid density was quantified (Fig 4). […]

CD4+ cells = test: Cuprizone model: immunofluorescently tagged CD4+ cells in the central part of the corpus callosum; type: in vivo, mice; settings: after 14 days of treatment in the cuprizone model, group E
Excerpt: Measurement of the quantity of immunofluorescently-tagged CD4+ cells in the central part of the corpus callosum following 14 days of treatment in the cuprizone model (Fig 7). Morphology of mouse blood in the cuprizone model and the in vivo model testing short-term pharmacotherapy of oxysterol CF3-7α,25OHC (Fig 10).
A (Fig 7) control group: regular cuprizone-free chow for 9 weeks. Mice were euthanised after 9 weeks and tissue samples were taken for analysis. In these mice, myelin sheaths were not removed.
B (Fig 7) control group with cuprizone: chow containing cuprizone for 9 weeks. The mice were euthanised following 9 weeks and tissue samples were taken for analysis. In the mice fed with cuprizone-containing chow myelin sheaths were removed.
C (Fig 7) or #3 (Fig 8 and 9) vehicle control group - the mice were fed with chow containing cuprizone for 9 weeks, and then with regular chow without cuprizone for another 2 weeks. Over the 2 weeks on regular chow the mice in the vehicle control group were first injected vehicle #1: DMSO (intraperitoneal injection), 150 µl once a day, and then vehicle #2: canola oil, subcutaneously, 150 µl once a day.
E (Fig 7) or #5 experimental group with oxysterol CF3-7α,25OHC - the mice were fed with chow containing cuprizone for 9 weeks, and then with regular chow without cuprizone for another 2 weeks. […]

Structure (SMILES): C[C@H](CCCC(C)(C)O)[C@H]1CC[C@H]2[C@H]3[C@H](CC[C@]12C)[C@@]1(C)CC[C@H](O)CC1=C[C@]3(O)C(F)(F)F [CF3-7α,25OHC, cholestene-7β-trifluoromethyl,3β,7α,25-triol]
- content of cholesterol in the corpus callosum ([1]; group E (CF3-7α,25OHC 20 mg/kg) compared to control group treated with vehicles): higher
- number of lipids with higher synthesis / concentration in the corpus callosum (brain) ([1]; group E compared to untreated group C): 15
- count of CD4+ cells in the corpus callosum (CD4+ cells): fewest; also recorded: lowest count
